Experimental data taken from patent US7776292B2 (priority 2004, dated 2010).
Where “and” joins values, the source holds several entries; their conditions need not be identical. Identical values can stand only once.

How the values were obtained:
Type in all cases: cell-based
[1] = tested on: conventional biological indicator spores
[2] = tested on: conventional biological indicator spores; remark: listed apart in the source
[3] = tested on: TP 10 (conventional bioindicator spores)
weaponized spores [4] = tested on: weaponized spores
weaponized spores [5] = tested on: weaponized spores; remark: listed apart in the source
weaponized spores [6] = tested on: weaponized spores; remark: listed apart in the source
weaponized spores [7] = tested on: weaponized spores; remark: listed apart in the source
[8] = tested on: conventional biological indicator spores; remark: listed apart in the source
weaponized spores [9] = tested on: weaponized spores; remark: listed apart in the source
weaponized spores [10] = tested on: weaponized spores; remark: listed apart in the source

[O][Cl+][O-] [chlorine dioxide]
viability in culture, Humidification Time 1 hour [1]: Negative
viability in culture, Humidification Time 2 hours [1]: Negative
viability in culture, Humidification Time 3 hours [1]: Negative
filters with viable spores/filters, ClO2 Concentration 500 ppm [2]: 0/2
filters with viable spores/filters, ClO2 Concentration 1000 ppm [2]: 0/2
filters with viable spores/filters, ClO2 Concentration 2500 ppm [2]: 0/2
viable spores after Cycle 1 [3]: 4.3 × 10^5
viable spores after Cycle 2 [3]: 1.3 × 10^3
viable spores after Cycle 3 [3]: 7.2 × 10^2
filters with viable spores/filters, Humidification time 1 hour (weaponized spores [4]): 0/2
filters with viable spores/filters, Humidification time 2 hours (weaponized spores [4]): 0/2
filters with viable spores/filters, Humidification time 3 hours (weaponized spores [4]): 0/2
filters with viable spores/filters, ClO2 Concentration 500 ppm (weaponized spores [5]): 3/4 and 2/2; and 2/2
filters with viable spores/filters, ClO2 Concentration 1000 ppm (weaponized spores [5]): 0/2
filters with viable spores/filters, ClO2 Concentration 2500 ppm (weaponized spores [5]): 0/2
viable spore count, ClO2 Concentration 500 ppm (weaponized spores [5]): 1.43 × 10^3
viable spores after Cycle 1 (weaponized spores [6]): 5.7 × 10^4
viable spores after Cycle 2 (weaponized spores [6]): 0
viable spores after Cycle 3 (weaponized spores [6]): 3.3 × 10^1
filters showing viable spores following decontamination (out of 16) (weaponized spores [7]): none
filters with viable spores/filters, Humidification time 1 hour [8]: 0/2
filters with viable spores/filters, Humidification time 2 hours [8]: 0/2
filters with viable spores/filters, Humidification time 3 hours [8]: 0/2
10^−4 (Dilution on agar) (weaponized spores [9]): TNTC
viability in culture, Humidification Time 1 hour (weaponized spores [10]): Positive
viability in culture, Humidification Time 2 hours (weaponized spores [10]): Positive
viability in culture, Humidification Time 3 hours (weaponized spores [10]): Positive
